Article PMC7969932, “Population pharmacokinetics and dose optimization of vancomycin in neonates” (Scientific Reports, 2021)

How the values were obtained:
[1] = Population pharmacokinetic modeling of vancomycin (NONMEM, one-compartment, first-order elimination; bootstrap, pc-VPC)
Description: For the analysis of vancomycin population pharmacokinetic parameters, nonlinear mixed-effect modeling was performed using NONMEM ver. 7.3 (Icon Development Solutions, Ellicott City, MD, USA) in conjunction with Perl Speaks NONMEM (PsN ver. 4.4.0), Pirana (ver. 2.9.7), and Xpose (ver. 4.0) contained in the R software package (ver. 3.5.0; http://www.r-project.org). The population analysis was conducted using the first-order conditional estimation method (FOCE) with ε–η interaction (FOCE INTER). One- and two-compartment models with first-order elimination were evaluated as potential structural pharmacokinetic models. The fixed-effect parameters were total clearance (CL) and volume of distribution (V) for the one-compartment model, and total CL, central V (V1), peripheral V (V2), and inter-compartmental CL (Q) for the two-compartment model. Possible correlations among the interindividual variability for pharmacokinetic parameters in the model were assessed by the OMEGA BLOCK functionality. Allometric scaling was applied to CL and isometric scaling was applied to V to standardize the pharmacokinetic parameters. The final allometric model was as follows: 3 CL=θCL×(WTi/70)^0.75 4 V=θV×(WTi/70)^1 where CL is the clearance in the ith individual with body weight WTi; θCL is the typical CL value in a standardized adult (70 kg); and θv is the typical V in a standardized adult (70 kg). Interindividual variability in the PK parameters was analyzed using exponential and power models. Covariance between interindividual variability was estimated using a variance–covariance matrix. Residual variability was attempted using additive, proportional, and combined models.
Covariates were investigated for the population modeling using linear, proportional, power, and exponential functions. […] When objective function value was decreased by at least 3.84 (χ^2-test, P < 0.05) from the structural model during the forward selection, the covariate was included in the model. All covariates that met the criteria were added to develop the full model. Then, during backward elimination, any covariate with an increase of at least 6.64 (χ^2-test, P < 0.01) was kept in the model. The categorical covariates tested were as follows: sex (where female = 1, male = 0), and types of delivery (where NsvD = 0, Csec = 1). The continuous covariates tested were body weight, blood urea nitrogen, SCr, protein, albumin, neutrophil, AST, ALT, CRP, WBC, height, PMA, PNA, CLcr, and gestational age.
Model validation was performed via three methods: graphical diagnostics using a goodness-of-fit plot, bootstrapping, and a pc-VPC. Individual observed vs. individual-predicted values and conditional weighted residual vs. time or population-predicted values or individual-predicted values were plotted using R for NONMEM. Bootstrap datasets were repeated 1,000 times using the final model; the pc-VPC was performed as a diagnostic plot.

[2] = Css,trough 15–20 μg/mL, neonates; cited from earlier work
Excerpt: (§1) There are numerous approaches to determining the adequate dosage regimen of vancomycin in neonates. To reflect PD and PK, area-under-the-curve concentrations versus time to the minimum inhibitory concentrations (AUC: MIC) can be used.

[3] = cited from earlier work
Excerpt: as §1

[4] = 1000 resampled data sets (993 successful), per 70 kg

SMILES: CN[C@H](CC(C)C)C(=O)N[C@H]1C(=O)N[C@@H](CC(N)=O)C(=O)N[C@H]2C(=O)N[C@H]3C(=O)N[C@H](C(=O)N[C@H](C(=O)O)c4cc(O)cc(O)c4-c4cc3ccc4O)[C@H](O)c3ccc(c(Cl)c3)Oc3cc2cc(c3O[C@@H]2O[C@H](CO)[C@@H](O)[C@H](O)[C@H]2O[C@H]2C[C@](C)(N)[C@H](O)[C@H](C)O2)Oc2ccc(cc2Cl)[C@H]1O [vancomycin]
- θ1, typical value of clearance, Bootstrap median (95% CI) [1, 4]: 2.07 (1.94, 2.21) L/h
- θ4, typical value of volume of distribution, Bootstrap median (95% CI) [1, 4]: 45.7 (41.6, 50.6) L
- θ2, power of PMA/31.7 on clearance, Estimate (%RSE) ([1]; final model): 0.795 (26%)
- θ3, power of CLcr/50.3 on clearance, Estimate (%RSE) ([1]; final model): 0.741 (6%)
- θ4, typical value of volume of distribution (TVV), Estimate (%RSE) ([1]; standardized to 70 kg (power 1), final model): 45.6 (5%) L
- Nephrotoxicity [2]: higher nephrotoxicity
- Css,trough that could satisfy AUC0-24/MIC ≥ 400 with less toxicity [3]: 5 to 15 µg/mL
- Trough concentrations that can achieve AUC0-24/MIC ≥ 400 [3]: around 10 mg/L
